For orientation: melting point means the temperature, or range, at which the solid turns liquid. Broadly, the IC50 is the concentration that gives 50% inhibition. A word on the Ki: it is a dissociation constant, usually derived from enzyme kinetics or from competition with a known ligand.

Data set [1] concerns the target T1, cloned human 5-HT1A receptors (Homo sapiens, UniProt P08908).
T1 construct: expressed in transfected cells
T1 sequence (P08908 1-422): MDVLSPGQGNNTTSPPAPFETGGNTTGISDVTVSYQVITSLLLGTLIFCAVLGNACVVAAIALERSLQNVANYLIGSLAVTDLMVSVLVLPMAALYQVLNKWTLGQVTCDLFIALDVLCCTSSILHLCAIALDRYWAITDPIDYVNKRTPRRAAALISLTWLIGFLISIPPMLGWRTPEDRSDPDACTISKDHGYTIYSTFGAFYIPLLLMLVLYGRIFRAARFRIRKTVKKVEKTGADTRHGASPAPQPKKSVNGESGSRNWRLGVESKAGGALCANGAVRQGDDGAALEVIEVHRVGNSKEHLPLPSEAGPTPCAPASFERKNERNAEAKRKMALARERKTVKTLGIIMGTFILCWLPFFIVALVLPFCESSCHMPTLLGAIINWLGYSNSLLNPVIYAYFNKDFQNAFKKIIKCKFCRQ
The data set is described as follows: 35S-GTPγS binding assay, antagonist activity at 5-HT1A receptors. In kind it is biochemical. The settings on record: reversal of the effects of the standard agonist 8-OHDPAT; for IC50: membranes with cloned human 5-HT1A receptors, read-out: 5-HT1A Function IC50. On the procedure:
Antagonist activity at 5-HT1A receptors was established by using a ^35S-GTPγS binding assay similar to that used by Lazareno and Birdsall (Br. J. Pharmacol. 109: 1120, 1993), in which the test compound's ability to affect the binding of ^35S-GTPγS to membranes containing cloned human 5-HT1A receptors was determined. Agonists produce an increase in binding whereas antagonists produce no increase but rather reverse the effects of the standard agonist 8-OHDPAT. The test compound's maximum inhibitory effect is represented as the Imax, while its potency is defined by the IC50.

The target in a further data set is T2, human 5-HT1A receptors (Homo sapiens, UniProt P08908).
T2 construct: expressed in transfected cells; host or cells: CHO cells, stably transfected
T2 sequence (P08908 1-422): T1 sequence (P08908 1-422)
The experiment in a line: [3H] 8-OHDPAT displacement from the 5-HT1A receptor (transfected CHO cells). The data set is classed as binding. From the text:
High affinity for the serotonin 5-HT1A receptor was established by testing the claimed compound's ability to displace [^3H] 8-OHDPAT (dipropylaminotetralin) from the 5-HT1A serotonin receptor following a modification of the procedure of Hall et al., J. Neurochem. 44, 1685 (1985) which utilizes CHO cells stably transfected with human 5-HT1A receptors.

The next data set deals with T3, serotonin transporter (Rattus norvegicus, UniProt P31652).
T3 construct: displace ^3H-paroxetine from male rat frontal cortical membranes; from tissue; host or cells: male rat frontal cortex membranes
T3 sequence (P31652 whole entry): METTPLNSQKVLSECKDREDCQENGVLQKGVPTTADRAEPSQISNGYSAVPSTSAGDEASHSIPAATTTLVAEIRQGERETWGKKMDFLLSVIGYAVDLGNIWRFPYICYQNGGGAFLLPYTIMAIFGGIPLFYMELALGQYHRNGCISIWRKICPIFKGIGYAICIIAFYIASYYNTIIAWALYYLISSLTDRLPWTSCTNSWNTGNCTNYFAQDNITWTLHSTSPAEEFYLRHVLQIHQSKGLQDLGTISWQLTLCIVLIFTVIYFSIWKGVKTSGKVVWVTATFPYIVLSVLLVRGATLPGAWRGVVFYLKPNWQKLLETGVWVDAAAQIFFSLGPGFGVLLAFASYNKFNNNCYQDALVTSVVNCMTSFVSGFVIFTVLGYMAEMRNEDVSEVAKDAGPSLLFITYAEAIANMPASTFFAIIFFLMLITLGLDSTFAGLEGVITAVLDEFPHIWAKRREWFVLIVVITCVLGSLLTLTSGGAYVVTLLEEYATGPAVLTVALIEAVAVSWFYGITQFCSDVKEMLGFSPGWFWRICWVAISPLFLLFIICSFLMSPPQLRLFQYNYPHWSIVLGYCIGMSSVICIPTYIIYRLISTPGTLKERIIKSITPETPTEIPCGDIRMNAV
The data set is described as follows: 3H-paroxetine displacement, affinity for the serotonin transporter. The data set is classed as binding.

[2] abbreviates: displacement of [3H] 8-OHDPAT, CHO cells stably transfected with human 5-HT1A receptors, read-out: 5-HT1A Receptor Affinity KI.
The mark [3] stands for this setting: displacement of 3H-paroxetine, male rat frontal cortical membranes, read-out: 5-HT Transporter Affinity KI.

Where a name gives a salt, the structure may show the parent alone. Read-outs that look alike come from different tables or passages of the source.

Take `Fc1ccc2c(C3=CCN(CC4COc5ccc6[nH]c(C(F)(F)F)nc6c5O4)CC3)c[nH]c2c1` (stereo not drawn) (as salt: fumarate) (hydrate or solvate) [Example 3, 8-[4-(6-Fluoro-1H-indol-3-yl)-3,6-dihydro-2H-pyridin-1-ylmethyl]-2-trifluoromethyl-7,8-dihydro-3H-6,9-dioxa-1,3-diaza-cyclopenta[a]naphthalene]: the melting point is 215 to 220 °C.

For the molecule `Cc1nc2c3c(ccc2[nH]1)OCC(CN1CC=C(c2c[nH]c4ccccc24)CC1)O3` (stereo not drawn) (as salt: fumarate) (hydrate or solvate) [Example 4, 8-[4-(1H-Indol-3-yl)-3,6-dihydro-2H-pyridin-1-ylmethyl]-2-methyl-7,8-dihydro-3H-6,9-dioxa-1,3-diaza-cyclopenta[a]naphthalene], the melting point lay within 219 to 222 °C.

In turn, `Fc1ccc2[nH]cc(C3=CCN(CC4COc5ccc6[nH]c(C(F)(F)F)nc6c5O4)CC3)c2c1` (stereo not drawn) (as salt: fumarate) [Example 1, 8-[4-(5-Fluoro-1H-indol-3-yl)-3,6-dihydro-2H-pyridin-1-ylmethyl]-2-trifluoromethyl-7,8-dihydro-3H-6,9-dioxa-1,3-diaza-cyclopenta[a]naphthalene] had a melting point of 236 to 238 °C.

`FC(F)(F)c1nc2c3c(ccc2[nH]1)OCC(CN1CC=C(c2c[nH]c4ccccc24)CC1)O3` (stereo not drawn) (as salt: fumarate) [Example 2, 8-[4-(1H-Indol-3-yl)-3,6-dihydro-2H-pyridin-1-ylmethyl]-2-trifluoromethyl-7,8-dihydro-3H-6,9-dioxa-1,3-diaza-cyclopenta[a]naphthalene] came in with a melting point of 231 to 233 °C.

The molecule `CCc1nc2c3c(ccc2[nH]1)OCC(CN1CC=C(c2c[nH]c4ccccc24)CC1)O3` (stereo not drawn) (as salt: fumarate) [Example 6, 8-[4-(1H-Indol-3-yl)-3,6-dihydro-2H-pyridin-1-ylmethyl]-2-ethyl-7,8-dihydro-3H-6,9-dioxa-1,3-diaza-cyclopenta[a]naphthalene] returned a melting point of 231 to 232 °C.

The molecule `Fc1cccc2c(C3=CCN(CC4COc5ccc6[nH]c(C(F)(F)F)nc6c5O4)CC3)c[nH]c12` (stereo not drawn) (as salt: fumarate) [Example 7, 8-[4-(7-Fluoro-1H-indol-3-yl)-3,6-dihydro-2H-pyridin-1-ylmethyl]-2-trifluoromethyl-7,8-dihydro-3H-6,9-dioxa-1,3-diaza-cyclopenta[a]naphthalene] had a melting point of 239 to 240 °C.

In turn, `FC(F)(F)C(F)(F)c1nc2c3c(ccc2[nH]1)OCC(CN1CC=C(c2c[nH]c4ccccc24)CC1)O3` (stereo not drawn) (as salt: fumarate) [Example 8, 8-[4-(1H-Indol-3-yl)-3,6-dihydro-2H-pyridin-1-ylmethyl]-2-pentafluoroethyl-7,8-dihydro-3H-6,9-dioxa-1,3-diaza-cyclopenta[a]naphthalene] came in with a melting point of 238 to 239 °C.

`Fc1ccc2[nH]cc(C3=CCN(CC4COc5ccc6[nH]c(C(F)(F)F)nc6c5O4)CC3)c2c1` (stereo not drawn) [Example 1, 8-[4-(5-Fluoro-1H-indol-3-yl)-3,6-dihydro-2H-pyridin-1-ylmethyl]-2-trifluoromethyl-7,8-dihydro-3H-6,9-dioxa-1,3-diaza-cyclopenta[a]naphthalene]: in data set [1], the “5-HT1A Function (Imax), maximum inhibitory effect” value is recorded as “(100)” and the IC50 is 93.5 nM. The molecule also returned a Ki on human 5-HT1A receptors of 3.07 nM. On serotonin transporter, this molecule registered a Ki of 1.04 nM.

Consider `FC(F)(F)c1nc2c3c(ccc2[nH]1)OCC(CN1CC=C(c2c[nH]c4ccccc24)CC1)O3` (stereo not drawn) [Example 2, 8-[4-(1H-Indol-3-yl)-3,6-dihydro-2H-pyridin-1-ylmethyl]-2-trifluoromethyl-7,8-dihydro-3H-6,9-dioxa-1,3-diaza-cyclopenta[a]naphthalene], for which, in data set [1], the “5-HT1A Function (Imax), maximum inhibitory effect” value is “(82.5)” and the half-inhibitory concentration (IC50) was determined as 29 nM. The affinity on human 5-HT1A receptors, expressed as Ki, was 1.76 nM. The molecule also displayed a Ki on serotonin transporter of 1.05 nM.

`Fc1ccc2c(C3=CCN(CC4COc5ccc6[nH]c(C(F)(F)F)nc6c5O4)CC3)c[nH]c2c1` (stereo not drawn) [Example 3, 8-[4-(6-Fluoro-1H-indol-3-yl)-3,6-dihydro-2H-pyridin-1-ylmethyl]-2-trifluoromethyl-7,8-dihydro-3H-6,9-dioxa-1,3-diaza-cyclopenta[a]naphthalene]: in data set [1], the “5-HT1A Function (Imax), maximum inhibitory effect” value was “(66.5)” and the IC50 came to 22 nM. At human 5-HT1A receptors, this molecule yielded an inhibitory constant (Ki) of 2.67 nM. The molecule further yielded a Ki on serotonin transporter of 1.12 nM.

On to `Cc1nc2c3c(ccc2[nH]1)OCC(CN1CC=C(c2c[nH]c4ccccc24)CC1)O3` (stereo not drawn) [Example 4, 8-[4-(1H-Indol-3-yl)-3,6-dihydro-2H-pyridin-1-ylmethyl]-2-methyl-7,8-dihydro-3H-6,9-dioxa-1,3-diaza-cyclopenta[a]naphthalene], for which, in data set [1], the “5-HT1A Function (Imax), maximum inhibitory effect” value is recorded as “(100)” and the IC50 was 10 nM. Further, the affinity at human 5-HT1A receptors, expressed as Ki, was 1.58 nM. The same molecule showed a Ki on serotonin transporter of 0.41 nM.

With `Cc1nc2ccc3c(c2n1C)OC(CN1CC=C(c2c[nH]c4ccccc24)CC1)CO3` (stereo not drawn) [Example 5, 8-[4-(1H-Indol-3-yl)-3,6-dihydro-2H-pyridin-1-ylmethyl]-1,2-dimethyl-7,8-dihydro-3H-6,9-dioxa-1,3-diaza-cyclopenta[a]naphthalene], in data set [1], the “5-HT1A Function (Imax), maximum inhibitory effect” value is recorded as “(100)” and the IC50 turned out to be 6520 nM. Besides, the Ki at human 5-HT1A receptors (setting [2]) turned out to be 52 nM. Besides, on serotonin transporter (setting [3]), the Ki was 2 nM.

On to `CCc1nc2c3c(ccc2[nH]1)OCC(CN1CC=C(c2c[nH]c4ccccc24)CC1)O3` (stereo not drawn) [Example 6, 8-[4-(1H-Indol-3-yl)-3,6-dihydro-2H-pyridin-1-ylmethyl]-2-ethyl-7,8-dihydro-3H-6,9-dioxa-1,3-diaza-cyclopenta[a]naphthalene], for which, in data set [1], the “5-HT1A Function (Imax), maximum inhibitory effect” value is listed as “(35.0)” and the IC50 is 36 nM. The molecule further displayed a Ki at human 5-HT1A receptors of 1.34 nM. In addition, the Ki at serotonin transporter amounted to 0.42 nM.

For the molecule `Fc1cccc2c(C3=CCN(CC4COc5ccc6[nH]c(C(F)(F)F)nc6c5O4)CC3)c[nH]c12` (stereo not drawn) [Example 7, 8-[4-(7-Fluoro-1H-indol-3-yl)-3,6-dihydro-2H-pyridin-1-ylmethyl]-2-trifluoromethyl-7,8-dihydro-3H-6,9-dioxa-1,3-diaza-cyclopenta[a]naphthalene], in data set [1], the “5-HT1A Function (Imax), maximum inhibitory effect” value is given as “(89.1)” and the IC50 worked out at 27.4 nM. On human 5-HT1A receptors, this molecule gave a Ki of 0.81 nM. For the same molecule, the Ki at serotonin transporter turned out to be 0.69 nM.

For `FC(F)(F)C(F)(F)c1nc2c3c(ccc2[nH]1)OCC(CN1CC=C(c2c[nH]c4ccccc24)CC1)O3` (stereo not drawn) [Example 8, 8-[4-(1H-Indol-3-yl)-3,6-dihydro-2H-pyridin-1-ylmethyl]-2-pentafluoroethyl-7,8-dihydro-3H-6,9-dioxa-1,3-diaza-cyclopenta[a]naphthalene], in data set [1], the “5-HT1A Function (Imax), maximum inhibitory effect” value is reported as “(91.1)” and the IC50 came to 43.6 nM. Besides, the Ki at human 5-HT1A receptors (setting [2]) was determined as 1.88 nM. Further, the Ki at serotonin transporter (setting [3]) came out at 1.25 nM.

For the origin of these results see US6927226B2, “Antidepressant azaheterocyclymethyl derivatives of 7,8-dihydro-3H-6,9-dioxa-1,3-diazacyclopenta[a]naphthalene” (Wyeth, priority 2001, dated 2005).
